We go through two compounds from publication PMC7013532, “Scenarios of Genes-to-Terpenoids Network Led to the Identification of a Novel α/β-Farnesene/β-Ocimene Synthase in Camellia sinensis” (International Journal of Molecular Sciences, 2020).

Molecules are shown by their SMILES.

In this assay the target is TPS2 (Camellia sinensis, UniProt A0A3G3IRF8). Put plainly: SPME GC-MS product analysis. The format is biochemical. As to conditions: pH 7.5, 50 mM Tris-HCl, 10 mM MgCl2, 5 mM DTT, 30 °C.
TPS2, sequence (A0A3G3IRF8 entry or part of it): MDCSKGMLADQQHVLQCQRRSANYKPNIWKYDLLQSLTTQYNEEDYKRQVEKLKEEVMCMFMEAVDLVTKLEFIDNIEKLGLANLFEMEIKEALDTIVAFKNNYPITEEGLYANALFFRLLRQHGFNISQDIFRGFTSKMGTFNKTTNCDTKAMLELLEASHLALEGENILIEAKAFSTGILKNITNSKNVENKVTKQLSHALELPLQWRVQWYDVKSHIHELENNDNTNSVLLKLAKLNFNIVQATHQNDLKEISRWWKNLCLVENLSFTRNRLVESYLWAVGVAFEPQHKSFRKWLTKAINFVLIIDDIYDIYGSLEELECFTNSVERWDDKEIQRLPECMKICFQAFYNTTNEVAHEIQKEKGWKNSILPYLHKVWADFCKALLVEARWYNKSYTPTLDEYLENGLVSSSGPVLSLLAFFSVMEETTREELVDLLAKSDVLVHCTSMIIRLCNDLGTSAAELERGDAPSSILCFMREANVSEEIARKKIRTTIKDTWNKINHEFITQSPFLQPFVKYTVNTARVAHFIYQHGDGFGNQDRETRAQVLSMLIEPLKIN

As for `CC(C)=CCC/C(C)=C/CC/C(C)=C/COP(=O)(O)OP(=O)(O)O` [FPP], under “products beta-farnesene (main) and alpha-farnesene”, the “SPME GC-MS product analysis” value is on record as “The main product produced by TPS2 using FPP as a substrate was β-farnesene”. With `CC(C)=CCC/C(C)=C/COP(=O)(O)OP(=O)(O)O` [GPP], under “product beta-ocimene”, the “SPME GC-MS product analysis” value is “β-ocimene is the resulting product when using GPP is used as the substrate”.
